# Data as given in patent publication US12010996B2, “Tris-substituted biguanide compounds and their uses” (priority 2018, dated 2024).
# Legend:
# Experiment in all cases: Antibacterial effectiveness testing, growth inhibition in BHI broth (absorbance 600 nm)
# Conditions in all cases: 37° C., 24 h
# A. baumanni-ATCC-19606 = assay type: cell-based
# Description: (§1) The antibacterial effectiveness testing was run against 7 strains of bacteria using the following protocol. […] Bacteria (either E. coli or P. aeruginosa or S. aureus or […] or K. pneumonia or A. baumanni or C. albicans) are added to all well except the control and incubated at 37° C. for 24 h. The absorbance was read at 600 nm. MIC90 was calculated as the concentration at which 90% growth inhibition is noticed. N=4 replicates for each compound and bacteria.
# K. pneumonia, ATCC-18804 = assay type: cell-based
# Description: as §1
# P. aeruginosa, ATCC-9027 = assay type: cell-based
# Description: as §1
# C. albicans, ATCC1-0231 = assay type: cell-based
# Description: as §1, with “protocol. Protocol:” for “protocol.”
# E. coli, ATCC-8739 = assay type: cell-based
# Description: as §1, with “protocol. Protocol:” for “protocol.”
# S. marcenes, ATCC-21639 = assay type: cell-based
# Description: as §1, with “protocol. Protocol:” for “protocol.”
# S. aeureus, ATCC 6538 = assay type: cell-based, S. aureus
# Description: as §1, with “protocol. Protocol:” for “protocol.”
# [1] = * BHI not containing acetic acid/BSA, beginning 1000 μg/mL suspension
# [2] = no asterisk (BHI containing acetic acid/BSA), beginning 1000 μg/mL suspension
# [3] = no asterisk, beginning 1000 μg/mL in DMSO/Water
SMILES,MIC (A. baumanni-ATCC-19606) (A. baumanni-ATCC-19606; [1]) [mg/L],MIC (A. baumanni-ATCC-19606) (A. baumanni-ATCC-19606; [2]) [mg/L],MIC (A. baumanni-ATCC-19606) (A. baumanni-ATCC-19606; [3]) [mg/L],"MIC (K. pneumonia, ATCC-18804) (K. pneumonia, ATCC-18804; [2]) [mg/L]","MIC (K. pneumonia, ATCC-18804) (K. pneumonia, ATCC-18804; [3]) [mg/L]","MIC90 (P. aeruginosa, ATCC-9027) (P. aeruginosa, ATCC-9027; [1]) [mg/L]","MIC90 (P. aeruginosa, ATCC-9027) (P. aeruginosa, ATCC-9027; [2]) [mg/L]","MIC90 (P. aeruginosa, ATCC-9027) (P. aeruginosa, ATCC-9027; [3]) [mg/L]","MIC (C. albicans, ATCC1-0231) (C. albicans, ATCC1-0231; [2]) [mg/L]","MIC (C. albicans, ATCC1-0231) (C. albicans, ATCC1-0231; [3]) [mg/L]","MIC90 (E. coli, ATCC-8739) (E. coli, ATCC-8739; [1]) [mg/L]","MIC90 (E. coli, ATCC-8739) (E. coli, ATCC-8739; [2]) [mg/L]","MIC90 (E. coli, ATCC-8739) (E. coli, ATCC-8739; [3]) [mg/L]","MIC (S. marcenes, ATCC-21639) (S. marcenes, ATCC-21639; [1]) [mg/L]","MIC (S. marcenes, ATCC-21639) (S. marcenes, ATCC-21639; [2]) [mg/L]","MIC (S. marcenes, ATCC-21639) (S. marcenes, ATCC-21639; [3]) [mg/L]","MIC (S. aeureus, ATCC 6538) (S. aeureus, ATCC 6538; [1]) [mg/L]","MIC (S. aeureus, ATCC 6538) (S. aeureus, ATCC 6538; [2]) [mg/L]","MIC (S. aeureus, ATCC 6538) (S. aeureus, ATCC 6538; [3]) [mg/L]","MIC (K. pneumonia, ATCC-18804) (K. pneumonia, ATCC-18804; [1]) [mg/L]"
N=C(NCCN(CCNC(=N)NC(=N)Nc1ccc(Cl)cc1)CCNC(=N)NC(=N)Nc1ccc(Cl)cc1)NC(=N)Nc1ccc(Cl)cc1 [USD 18],3.12,6.25,0.39,12.5,6.25,6.25,0.76,0.76,6.25,3.12,3.12,3.15,6.25,3.12,50,12.5,0.78,0.76,0.76,
N=C(NCCN(CCNC(=N)NC(=N)Nc1ccc(C(F)(F)F)cc1)CCNC(=N)NC(=N)Nc1ccc(C(F)(F)F)cc1)NC(=N)Nc1ccc(C(F)(F)F)cc1 [USD 19],3.12,1.5,,25,,12.5,3.15,,6.25,,12.5,315,,3.12,100,,3.12,1.5,,
"Cl.Cl.N=C(NCCCCCCNC(=N)NC(=N)Nc1ccc(Cl)cc1)NC(=N)Nc1ccc(Cl)cc1 [USD 20, chlorhexidine dihydrochloride, reference compound]",25,,0.39,,3.12,25,,1.5,,12.5,0.78,,1.5,6.25,,3.25,0.78,,0.76,25
